Source: patent US12077503B2, “Substituted cyclic amides and their use as herbicides” (FMC CORPORATION, priority 2015, dated 2024)

Legend:
Format in all cases: in vivo
[1] = tested on: velvetleaf (Abutilon theophrasti); assay: Test G Post-Emergence Protocol; conditions: Abutilon theophrasti, post-emergence, 312 h; for pest or weed control at 15.625 g/ha: 15.625 g ai/ha, evaluated after 13 days (100=total damage to plant; 0=no damage to plant), read-out: Velvetleaf damage rating; for pest or weed control at 62.5 g/ha: 62.5 g ai/ha, read-out: Velvetleaf damage rating (100=total damage to plant; 0=no damage to plant); for pest or weed control at 62.5 g/ha / pest or weed control at 250 g/ha: evaluated after 13 days; for pest or weed control at 250 g/ha: 250 g ai/ha, read-out: damage to plant, Velvetleaf (100=total damage to plant; 0=no damage to plant)
In short: (§1)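 Damage was rated 13 days after treatment from 0 (none) to 100 (plant killed). Compound was applied as a spray at 15.625, 62.5 or 250 g/ha in 50:50 acetone/water containing 0.5% Tween 20, onto 8-day-old potted plants kept in a glasshouse (24/16 °C, 14 h light, 65% humidity).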

[2] = tested on: ivy-leaved morning glory (Ipomoea hederacea); assay: Test G Post-Emergence Protocol; conditions: Ipomoea, post-emergence, 312 h; for pest or weed control at 15.625 g/ha: 15.625 g ai/ha, evaluated after 13 days (100=total damage to plant; 0=no damage to plant), read-out: Morningglory, Ivy-leaved damage rating; for pest or weed control at 62.5 g/ha: 62.5 g ai/ha, read-out: Morningglory, Ivy-leaved damage rating (100=total damage to plant; 0=no damage to plant); for pest or weed control at 62.5 g/ha / pest or weed control at 250 g/ha: evaluated after 13 days; for pest or weed control at 250 g/ha: 250 g ai/ha, read-out: damage to plant, Morningglory, Ivy-leaved (100=total damage to plant; 0=no damage to plant)
In short: as §1

[3] = tested on: barnyardgrass (Echinochloa crus-galli); assay: Test G Post-Emergence Protocol; conditions: Echinochloa crus-galli, post-emergence, 312 h; for pest or weed control at 15.625 g/ha: 15.625 g ai/ha, evaluated after 13 days (100=total damage to plant; 0=no damage to plant), read-out: Barnyardgrass damage rating; for pest or weed control at 62.5 g/ha: 62.5 g ai/ha, read-out: Barnyardgrass damage rating (100=total damage to plant; 0=no damage to plant); for pest or weed control at 62.5 g/ha / pest or weed control at 250 g/ha: evaluated after 13 days; for pest or weed control at 250 g/ha: 250 g ai/ha, read-out: damage to plant, Barnyardgrass (100=total damage to plant; 0=no damage to plant)
In short: as §1

[4] = tested on: redroot pigweed (Amaranthus retroflexus); assay: Test G Post-Emergence Protocol; conditions: Amaranthus retroflexus, post-emergence, 312 h; for pest or weed control at 15.625 g/ha: 15.625 g ai/ha, evaluated after 13 days (100=total damage to plant; 0=no damage to plant), read-out: Pigweed, Redroot damage rating; for pest or weed control at 62.5 g/ha: 62.5 g ai/ha, read-out: Pigweed, Redroot damage rating (100=total damage to plant; 0=no damage to plant); for pest or weed control at 62.5 g/ha / pest or weed control at 250 g/ha: evaluated after 13 days; for pest or weed control at 250 g/ha: 250 g ai/ha, read-out: damage to plant, Pigweed, Redroot (100=total damage to plant; 0=no damage to plant)
In short: as §1

[5] = tested on: giant foxtail (Setaria faberi); assay: Test G Post-Emergence Protocol; conditions: Setaria faberi, post-emergence, 312 h; for pest or weed control at 15.625 g/ha: 15.625 g ai/ha, evaluated after 13 days (100=total damage to plant; 0=no damage to plant), read-out: Foxtail, Giant damage rating; for pest or weed control at 62.5 g/ha: 62.5 g ai/ha, read-out: Foxtail, Giant damage rating (100=total damage to plant; 0=no damage to plant); for pest or weed control at 62.5 g/ha / pest or weed control at 250 g/ha: evaluated after 13 days; for pest or weed control at 250 g/ha: 250 g ai/ha, read-out: damage to plant, Foxtail, Giant (100=total damage to plant; 0=no damage to plant)
In short: as §1

corn (Zea mays) [6] = assay: Test G Post-Emergence Protocol; conditions: Zea mays, post-emergence, 312 h; for plant injury at 15.625 g/ha: 15.625 g ai/ha, evaluated after 13 days (100=total damage to plant; 0=no damage to plant), read-out: Corn damage rating; for plant injury at 62.5 g/ha: 62.5 g ai/ha, read-out: Corn damage rating (100=total damage to plant; 0=no damage to plant); for plant injury at 62.5 g/ha / plant injury at 250 g/ha: evaluated after 13 days; for plant injury at 250 g/ha: 250 g ai/ha, read-out: damage to plant, Corn (100=total damage to plant; 0=no damage to plant)
In short: as §1

[7] = tested on: velvetleaf (Abutilon theophrasti); assay: Test G Pre-Emergence Protocol; conditions: Abutilon theophrasti, pre-emergence, 312 h, evaluated after 13 days; for pest or weed control at 15.625 g/ha: 15.625 g ai/ha; for pest or weed control at 15.625 g/ha / pest or weed control at 250 g/ha: read-out: Velvetleaf damage rating (100=total damage to plant; 0=no damage to plant); for pest or weed control at 62.5 g/ha: 62.5 g ai/ha, 100=total damage to plant, 0=no damage to plant, read-out: plant damage rating, Velvetleaf; for pest or weed control at 250 g/ha: 250 g ai/ha
In short: (§2)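 One day after sowing, pots are treated with a spray of test compound formulated in acetone/water 50:50 plus 0.5% Tween 20, giving 15.625, 62.5 or 250 g/ha. Evaluation on a 0–100 damage scale follows 13 days of glasshouse growth.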

[8] = tested on: ivy-leaved morning glory (Ipomoea hederacea); assay: Test G Pre-Emergence Protocol; conditions: Ipomoea, pre-emergence, 312 h, evaluated after 13 days; for pest or weed control at 15.625 g/ha: 15.625 g ai/ha, read-out: Morning-glory, Ivy-leaved damage rating (100=total damage to plant; 0=no damage to plant); for pest or weed control at 62.5 g/ha: 62.5 g ai/ha, 100=total damage to plant, 0=no damage to plant, read-out: plant damage rating, Morningglory, Ivy-leaved; for pest or weed control at 250 g/ha: 250 g ai/ha, read-out: Morningglory, Ivy-leaved damage rating (100=total damage to plant; 0=no damage to plant)
In short: as §2

[9] = tested on: barnyardgrass (Echinochloa crus-galli); assay: Test G Pre-Emergence Protocol; conditions: Echinochloa crus-galli, pre-emergence, 312 h, evaluated after 13 days; for pest or weed control at 15.625 g/ha: 15.625 g ai/ha, read-out: Barnyard grass damage rating (100=total damage to plant; 0=no damage to plant); for pest or weed control at 62.5 g/ha: 62.5 g ai/ha, 100=total damage to plant, 0=no damage to plant, read-out: plant damage rating, Barnyardgrass; for pest or weed control at 250 g/ha: 250 g ai/ha, read-out: Barnyardgrass damage rating (100=total damage to plant; 0=no damage to plant)
In short: as §2

[10] = tested on: redroot pigweed (Amaranthus retroflexus); assay: Test G Pre-Emergence Protocol; conditions: Amaranthus retroflexus, pre-emergence, 312 h, evaluated after 13 days; for pest or weed control at 15.625 g/ha: 15.625 g ai/ha; for pest or weed control at 15.625 g/ha / pest or weed control at 250 g/ha: read-out: Pigweed, Redroot damage rating (100=total damage to plant; 0=no damage to plant); for pest or weed control at 62.5 g/ha: 62.5 g ai/ha, 100=total damage to plant, 0=no damage to plant, read-out: plant damage rating, Pigweed, Redroot; for pest or weed control at 250 g/ha: 250 g ai/ha
In short: as §2

[11] = tested on: giant foxtail (Setaria faberi); assay: Test G Pre-Emergence Protocol; conditions: Setaria faberi, pre-emergence, 312 h, evaluated after 13 days; for pest or weed control at 15.625 g/ha: 15.625 g ai/ha; for pest or weed control at 15.625 g/ha / pest or weed control at 250 g/ha: read-out: Foxtail, Giant damage rating (100=total damage to plant; 0=no damage to plant); for pest or weed control at 62.5 g/ha: 62.5 g ai/ha, 100=total damage to plant, 0=no damage to plant, read-out: plant damage rating, Foxtail, Giant; for pest or weed control at 250 g/ha: 250 g ai/ha
In short: as §2

corn (Zea mays) [12] = assay: Test G Pre-Emergence Protocol; conditions: Zea mays, pre-emergence, 312 h, evaluated after 13 days; for plant injury at 15.625 g/ha: 15.625 g ai/ha; for plant injury at 15.625 g/ha / plant injury at 250 g/ha: read-out: Corn damage rating (100=total damage to plant; 0=no damage to plant); for plant injury at 62.5 g/ha: 62.5 g ai/ha, 100=total damage to plant, 0=no damage to plant, read-out: plant damage rating, Corn; for plant injury at 250 g/ha: 250 g ai/ha
In short: as §2

Compound	pest or weed control at 15.625 g/ha [1]	pest or weed control at 62.5 g/ha [1]	pest or weed control at 250 g/ha [1]	pest or weed control at 15.625 g/ha [2]	pest or weed control at 62.5 g/ha [2]	pest or weed control at 250 g/ha [2]	pest or weed control at 15.625 g/ha [3]	pest or weed control at 62.5 g/ha [3]	pest or weed control at 250 g/ha [3]	pest or weed control at 15.625 g/ha [4]	pest or weed control at 62.5 g/ha [4]	pest or weed control at 250 g/ha [4]	pest or weed control at 15.625 g/ha [5]	pest or weed control at 62.5 g/ha [5]	pest or weed control at 250 g/ha [5]	plant injury at 15.625 g/ha (corn (Zea mays) [6])	plant injury at 62.5 g/ha (corn (Zea mays) [6])	plant injury at 250 g/ha (corn (Zea mays) [6])	pest or weed control at 15.625 g/ha [7]	pest or weed control at 62.5 g/ha [7]	further results
CN1C[C@@H](c2ccc(C(F)(F)F)cc2)[C@H](C(=O)Nc2cnn(C)n2)C1=O (racemic) [Compound 1531]	0%	0%	0%	0%	0%	0%	0%	0%	0%	0%	0%	0%	0%	0%	0%	0%	0%	10%	0%	0%	pest or weed control at 250 g/ha [7]: 0%; pest or weed control at 15.625 g/ha [8]: 0%; pest or weed control at 62.5 g/ha [8]: 0%; pest or weed control at 250 g/ha [8]: 0%; pest or weed control at 15.625 g/ha [9]: 0%; pest or weed control at 62.5 g/ha [9]: 0%; pest or weed control at 250 g/ha [9]: 0%; pest or weed control at 15.625 g/ha [10]: 0%; pest or weed control at 62.5 g/ha [10]: 0%; pest or weed control at 250 g/ha [10]: 0%; pest or weed control at 15.625 g/ha [11]: 0%; pest or weed control at 62.5 g/ha [11]: 0%; pest or weed control at 250 g/ha [11]: 0%; plant injury at 15.625 g/ha (corn (Zea mays) [12]): 0%; plant injury at 62.5 g/ha (corn (Zea mays) [12]): 0%; plant injury at 250 g/ha (corn (Zea mays) [12]): 0%
CN1C[C@@H](c2ccc(C(F)(F)F)cc2)[C@H](C(=O)Nc2cccc(C(F)(F)F)c2[N+](=O)[O-])C1=O (racemic) [Compound 1594]	0%	0%	0%	0%	0%	0%	0%	20%	20%	0%	0%	0%	0%	20%	20%	0%	0%	0%	0%	0%	pest or weed control at 250 g/ha [7]: 0%; pest or weed control at 15.625 g/ha [8]: 0%; pest or weed control at 62.5 g/ha [8]: 0%; pest or weed control at 250 g/ha [8]: 0%; pest or weed control at 15.625 g/ha [9]: 0%; pest or weed control at 62.5 g/ha [9]: 20%; pest or weed control at 250 g/ha [9]: 20%; pest or weed control at 15.625 g/ha [10]: 0%; pest or weed control at 62.5 g/ha [10]: 0%; pest or weed control at 250 g/ha [10]: 0%; pest or weed control at 15.625 g/ha [11]: 0%; pest or weed control at 62.5 g/ha [11]: 40%; pest or weed control at 250 g/ha [11]: 30%; plant injury at 15.625 g/ha (corn (Zea mays) [12]): 0%; plant injury at 62.5 g/ha (corn (Zea mays) [12]): 10%; plant injury at 250 g/ha (corn (Zea mays) [12]): 10%
